Results: the supplement of paper PMC10307832

Tests used:
Assay in all cases: relative viability (nuclei count vs DMSO), 5 days (fraction); higher = more cells survive
[1] = test system: ABC-1
Outline: (§1)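 Cells from lung cancer lines were seeded into 1536-well plates and, one day later, dosed by pin tool. Treatments were either a single drug or a fixed dose of an anchor drug with five library-drug doses (not always all listed) in √10 steps. After 5 days, nuclei were stained in a one-step fixation (final 0.05% Triton X-100, 1% formaldehyde, 1 ug/ml Hoechst) and counted on 4× images, and relative viability is the treated-to-vehicle nuclei ratio, as the median of duplicate plates.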

[2] = test system: NCI-H3122
Outline: as §1

[3] = test system: COR-L 105
Outline: as §1

[4] = test system: UMC-11
Outline: as §1

[5] = test system: NCI-H2085
Outline: as §1

[6] = test system: HCC-15
Outline: as §1

[7] = test system: HOP-62
Outline: as §1

[8] = test system: EPLC-272H
Outline: as §1

[9] = test system: NCI-H441
Outline: as §1

[10] = test system: CAL-12T
Outline: as §1

[11] = test system: EMC-BAC-2
Outline: as §1

Compound: COc1cc2nccc(Oc3ccc(NC(=O)Nc4cc(C)on4)c(Cl)c3)c2cc1OC [Tivozanib] + CC(=O)c1c(C)c2cnc(Nc3ccc(N4CCNCC4)cn3)nc2n(C2CCCC2)c1=O [Palbociclib] (partner 0.5 µM)
- relative viability ([1]; first compound 0.005 µM): 0.638
- relative viability ([1]; first compound 0.01581 µM): 0.732
- relative viability ([1]; first compound 0.05 µM): 0.562
- relative viability ([1]; first compound 0.1581 µM): 0.511
- relative viability ([1]; first compound 0.5 µM): 0.437
- relative viability ([2]; first compound 0.005 µM): 0.164
- relative viability ([2]; first compound 0.01581 µM): 0.207
- relative viability ([2]; first compound 0.05 µM): 0.187
- relative viability ([2]; first compound 0.1581 µM): 0.212
- relative viability ([2]; first compound 0.5 µM): 0.184
- relative viability ([3]; first compound 0.005 µM): 0.411
- relative viability ([3]; first compound 0.01581 µM): 0.436
- relative viability ([3]; first compound 0.05 µM): 0.433
- relative viability ([3]; first compound 0.1581 µM): 0.404
- relative viability ([3]; first compound 0.5 µM): 0.415
- relative viability ([4]; first compound 0.005 µM): 0.288
- relative viability ([4]; first compound 0.01581 µM): 0.327
- relative viability ([4]; first compound 0.05 µM): 0.32
- relative viability ([4]; first compound 0.1581 µM): 0.304
- relative viability ([4]; first compound 0.5 µM): 0.307
- relative viability ([5]; first compound 0.005 µM): 0.458
- relative viability ([5]; first compound 0.01581 µM): 0.478
- relative viability ([5]; first compound 0.05 µM): 0.512
- relative viability ([5]; first compound 0.1581 µM): 0.512
- relative viability ([5]; first compound 0.5 µM): 0.503
- relative viability ([6]; first compound 0.005 µM): 0.689
- relative viability ([6]; first compound 0.01581 µM): 0.768
- relative viability ([6]; first compound 0.05 µM): 0.767
- relative viability ([6]; first compound 0.1581 µM): 0.734
- relative viability ([6]; first compound 0.5 µM): 0.672
- relative viability ([7]; first compound 0.005 µM): 0.499
- relative viability ([7]; first compound 0.01581 µM): 0.419
- relative viability ([7]; first compound 0.05 µM): 0.495
- relative viability ([7]; first compound 0.1581 µM): 0.438
- relative viability ([7]; first compound 0.5 µM): 0.397
- relative viability ([8]; first compound 0.005 µM): 0.268
- relative viability ([8]; first compound 0.01581 µM): 0.303
- relative viability ([8]; first compound 0.05 µM): 0.35
- relative viability ([8]; first compound 0.1581 µM): 0.348
- relative viability ([8]; first compound 0.5 µM): 0.282
- relative viability ([9]; first compound 0.005 µM): 0.214
- relative viability ([9]; first compound 0.01581 µM): 0.262
- relative viability ([9]; first compound 0.05 µM): 0.248
- relative viability ([9]; first compound 0.1581 µM): 0.216
- relative viability ([9]; first compound 0.5 µM): 0.207
- relative viability ([10]; first compound 0.005 µM): 0.407
- relative viability ([10]; first compound 0.01581 µM): 0.433
- relative viability ([10]; first compound 0.05 µM): 0.465
- relative viability ([10]; first compound 0.1581 µM): 0.224
- relative viability ([10]; first compound 0.5 µM): 0.402
- relative viability ([11]; first compound 0.005 µM): 0.524
- relative viability ([11]; first compound 0.01581 µM): 0.543
- relative viability ([11]; first compound 0.05 µM): 0.529
- relative viability ([11]; first compound 0.1581 µM): 0.521
- relative viability ([11]; first compound 0.5 µM): 0.494
